Values joined by “and” are separate entries in the source; they are usually repeats but may differ in a detail not shown here. Identical values can stand only once. Toxic doses and inconclusive results are not listed.

T/C data for 23 compounds are collected here from PubChem BioAssay AID330 (DTP/NCI, 2004).

This experiment has as its system P388 leukemia ip, CD2F1 mice, survival T/C. Kind of experiment: NCI In Vivo Anticancer Drug Screen. Data for tumor model P388 Leukemia (intraperitoneal) in CD2F1 (CDF1) mice. Particulars: endpoint: median survival time, higher = longer survival. In a few lines: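 Mice carrying the transplanted tumor received test compound or vehicle. Survival was recorded in each group, and the value is the treated-group measurement divided by that of the vehicle-treated control group.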

The mark [1] stands for this setting: dose: 200.0 mg/kg/injection, schedule: Q04DX003 (ip), vehicle: saline with Tween-80.
Where [2] appears, read: dose: 50.0 mg/kg/injection, schedule: Q01DX005 (ip), vehicle: Klucel (hydroxypropylcellulose) (HPC).
Where [3] appears, read: dose: 100.0 mg/kg/injection, schedule: Q01DX005 (ip), vehicle: Klucel (hydroxypropylcellulose) (HPC).
Setting [4] is: dose: 200.0 mg/kg/injection, schedule: Q01DX005 (ip), vehicle: Klucel (hydroxypropylcellulose) (HPC).
Setting [5] is: dose: 25.0 mg/kg/injection, schedule: Q01DX009 (ip), vehicle: saline with Tween-80.

`COC(=O)Nc1nc2ccc(C(=O)OC(C)C)cc2[nH]1`: the T/C was 111 % of control and 116 % of control (dose: 100.0 mg/kg/injection, schedule: Q04DX003 (ip), vehicle: saline with Tween-80); 118 % of control under setting [1]; 155 % of control (dose: 800.0 mg/kg/injection, schedule: Q04DX003 (ip), vehicle: saline with Tween-80).

For `CC(C)NCCCC(=O)O`, the T/C is 101 % of control (dose: 25.0 mg/kg/injection, schedule: Q01DX009 (ip), vehicle: water); 99 % of control (dose: 50.0 mg/kg/injection, schedule: Q01DX009 (ip), vehicle: water); 109 % of control (dose: 100.0 mg/kg/injection, schedule: Q01DX009 (ip), vehicle: water); 96 % of control (dose: 200.0 mg/kg/injection, schedule: Q01DX009 (ip), vehicle: water); 90 % of control (dose: 400.0 mg/kg/injection, schedule: Q01DX009 (ip), vehicle: water).

`COc1ccc(/C=C/C(=O)C(C)(CN(C)C)CN(C)C)cc1`: the T/C was 123 % of control (dose: 30.0 mg/kg/injection, schedule: Q01DX005 (ip), vehicle: saline) and 121 % of control (dose: 120.0 mg/kg/injection, schedule: Q01DX005 (ip), vehicle: saline).

As to `Cc1ccc(C2C=CC(C#N)=CN2Cc2ccccc2)cc1` (stereo not drawn), the T/C by setting is: under setting [2], 99 % of control; under setting [3], 104 % of control; under setting [4], 101 % of control.

As to `N#CC(=S)N(C(=O)c1ccc(Cl)cc1)c1ccccc1Cl`, the T/C reads like this: (dose: 60.0 mg/kg/injection, schedule: Q01DX005 (ip), vehicle: Klucel + Tween-80) 103 % of control; (dose: 120.0 mg/kg/injection, schedule: Q01DX005 (ip), vehicle: Klucel + Tween-80) 112 % of control.

Regarding `O=C(O)COc1nc(Cl)c(Cl)cc1Cl`, the T/C was 101 % of control and 104 % of control (dose: 60.0 mg/kg/injection, schedule: Q01DX005 (ip), vehicle: Klucel (hydroxypropylcellulose) (HPC)); 103 % of control (dose: 120.0 mg/kg/injection, schedule: Q01DX005 (ip), vehicle: Klucel (hydroxypropylcellulose) (HPC)); 113 % of control and 94 % of control (dose: 240.0 mg/kg/injection, schedule: Q01DX005 (ip), vehicle: Klucel (hydroxypropylcellulose) (HPC)).

Regarding `Clc1ccc(C2=NON(c3ccccn3)C3C=CC=CN23)cc1` (stereo not drawn), the T/C is, setting by setting: (dose: 50.0 mg/kg/injection, schedule: Q01DX005 (ip), vehicle: saline with Tween-80) 97 % of control; (dose: 100.0 mg/kg/injection, schedule: Q01DX005 (ip), vehicle: saline with Tween-80) 93 % of control; (dose: 200.0 mg/kg/injection, schedule: Q01DX005 (ip), vehicle: saline with Tween-80) 93 % of control.

As to `Cc1ccc(C#N)s1`, the T/C reads like this: (dose: 3.12 mg/kg/injection, schedule: Q01DX009 (ip), vehicle: saline with Tween-80) 104 % of control; (dose: 6.25 mg/kg/injection, schedule: Q01DX009 (ip), vehicle: saline with Tween-80) 103 % of control; (dose: 12.5 mg/kg/injection, schedule: Q01DX009 (ip), vehicle: saline with Tween-80) 102 % of control; under setting [5], 95 % of control.

`CCCCCCCCCCCCCCCC[N+]1(CCC(C)C)CCOCC1`: the T/C is 100 % of control (dose: 100.0 mg/kg/injection, schedule: Q04DX002 (ip), vehicle: Klucel (hydroxypropylcellulose) (HPC)); 94 % of control (dose: 200.0 mg/kg/injection, schedule: Q04DX002 (ip), vehicle: Klucel (hydroxypropylcellulose) (HPC)); 104 % of control (dose: 400.0 mg/kg/injection, schedule: Q04DX002 (ip), vehicle: Klucel (hydroxypropylcellulose) (HPC)).

As to `COc1cc2c(cc1OC)-c1c3c(cc4c1[C@H](C2)N(C)CC4)OCO3`, the T/C is, setting by setting: under setting [1], 110 % of control; (dose: 400.0 mg/kg/injection, schedule: Q04DX003 (ip), vehicle: saline with Tween-80) 110 % of control.

Take `CC(C)=CCC[C@](C)(O[C@@H]1O[C@H](CO)[C@@H](O)[C@H](O)[C@H]1O)[C@H]1CC[C@]2(C)[C@@H]1[C@H](O)C[C@@H]1[C@@]3(C)CC[C@H](O)C(C)(C)[C@@H]3[C@@H](O[C@@H]3O[C@H](CO)[C@@H](O)[C@H](O)[C@H]3O)C[C@]12C`: the T/C by setting is: (dose: 50.0 mg/kg/injection, schedule: Q01DX009 (ip), vehicle: saline) 105 % of control; (dose: 100.0 mg/kg/injection, schedule: Q01DX009 (ip), vehicle: saline) 106 % of control; (dose: 200.0 mg/kg/injection, schedule: Q01DX009 (ip), vehicle: saline) 106 % of control.

For `C/C=C/C(=O)OC(C)CCC(CC)CCCC` (stereo not drawn), the T/C is, setting by setting: (dose: 100.0 mg/kg/injection, schedule: Q01DX009 (ip), vehicle: Klucel (hydroxypropylcellulose) (HPC)) 100 % of control; (dose: 200.0 mg/kg/injection, schedule: Q01DX009 (ip), vehicle: Klucel (hydroxypropylcellulose) (HPC)) 96 % of control; (dose: 400.0 mg/kg/injection, schedule: Q01DX009 (ip), vehicle: Klucel (hydroxypropylcellulose) (HPC)) 91 % of control.

`CN(C)/C=N\c1ncnc2c1c(C#N)cn2C1OC(CO)C(O)C1O` (stereo not drawn): the T/C by setting is: (dose: 7.5 mg/kg/injection, schedule: Q01DX005 (ip), vehicle: Klucel (hydroxypropylcellulose) (HPC)) 104 % of control and 112 % of control; (dose: 15.0 mg/kg/injection, schedule: Q01DX005 (ip), vehicle: Klucel (hydroxypropylcellulose) (HPC)) 120 % of control and 121 % of control.

For `C[S+](C)CCCNC(=O)c1csc(CCNC(=O)c2ccccc2)n1`, the T/C runs as follows: (dose: 12.5 mg/kg/injection, schedule: Q04DX003 (ip), vehicle: saline + alcohol) 95 % of control; (dose: 25.0 mg/kg/injection, schedule: Q04DX003 (ip), vehicle: saline + alcohol) 100 % of control; (dose: 50.0 mg/kg/injection, schedule: Q04DX003 (ip), vehicle: saline + alcohol) 100 % of control.

In the case of `CC1=C(CCC(=O)O)c2cc3nc(cc4[nH]c(cc5[nH]c(cc1n2)c(C)c5C1CC1C(=O)O)c(C)c4C1CC1C(=O)O)C(C)=C3CCC(=O)O` (stereo not drawn), the T/C is 106 % of control under setting [2], 101 % of control under setting [3] and 95 % of control under setting [4].

Turning to `COc1ccc(/C=N/NC(=O)CNC(=O)Nc2n[nH]c(=S)s2)cc1`, the T/C was 100 % of control under setting [2], 104 % of control under setting [3] and 100 % of control under setting [4].

Consider `CONCc1ccc(C(=O)NC(C)C)cc1`, for which the T/C (dose: 25.0 mg/kg/injection, schedule: Q01DX009 (ip), vehicle: distilled water + Tween-80) was 105 % of control; the T/C (dose: 50.0 mg/kg/injection, schedule: Q01DX009 (ip), vehicle: distilled water + Tween-80) was 106 % of control; the T/C (dose: 100.0 mg/kg/injection, schedule: Q01DX009 (ip), vehicle: distilled water + Tween-80) was 90 % of control; the T/C (dose: 200.0 mg/kg/injection, schedule: Q01DX009 (ip), vehicle: distilled water + Tween-80) is 90 % of control.

Regarding `O=C1NC(=O)N(/N=C/c2ccc(-c3ccc(Cl)c(Cl)c3)o2)C1O` (stereo not drawn), the T/C is 100 % of control (dose: 50.0 mg/kg/injection, schedule: Q04DX002 (ip), vehicle: saline with Tween-80); 99 % of control (dose: 100.0 mg/kg/injection, schedule: Q04DX002 (ip), vehicle: saline with Tween-80); 101 % of control (dose: 200.0 mg/kg/injection, schedule: Q04DX002 (ip), vehicle: saline with Tween-80).

For `CN1CCN(C#CC(=O)c2ccc(Cl)cc2)CC1`, the T/C runs as follows: (dose: 7.5 mg/kg/injection, schedule: Q01DX005 (ip), vehicle: saline with Tween-80) 114 % of control; (dose: 15.0 mg/kg/injection, schedule: Q01DX005 (ip), vehicle: saline with Tween-80) 117 % of control.

Turning to `CCCCCCCCCCCCC(=O)CCCCC(=O)OC1OCC23OC2C2CC(C)(C)CC2C2(C)CC123` (stereo not drawn), the T/C by setting is: (dose: 10.0 mg/kg/injection, schedule: Q01DX005 (ip), vehicle: olive oil, sesame oil, peanut oil) 105 % of control; (dose: 20.0 mg/kg/injection, schedule: Q01DX005 (ip), vehicle: olive oil, sesame oil, peanut oil) 95 % of control; (dose: 40.0 mg/kg/injection, schedule: Q01DX005 (ip), vehicle: olive oil, sesame oil, peanut oil) 101 % of control; (dose: 80.0 mg/kg/injection, schedule: Q01DX005 (ip), vehicle: olive oil, sesame oil, peanut oil) 94 % of control.

In the case of `COC1=C(C)C2CC(=O)OC3C(O)C4C(C)CC(O)C(=O)C4(C)C(C1=O)C23C` (stereo not drawn), the T/C reads like this: (dose: 3.0 mg/kg/injection, schedule: Q01DX009 (ip), vehicle: alcohol) 105 % of control; (dose: 6.0 mg/kg/injection, schedule: Q01DX009 (ip), vehicle: alcohol) 104 % of control; (dose: 12.0 mg/kg/injection, schedule: Q01DX009 (ip), vehicle: alcohol) 107 % of control.

Turning to `CC(C)c1ccc(O)c(O)c1`, the T/C reads like this: under setting [5], 113 % of control; (dose: 50.0 mg/kg/injection, schedule: Q01DX009 (ip), vehicle: saline with Tween-80) 113 % of control; (dose: 100.0 mg/kg/injection, schedule: Q01DX009 (ip), vehicle: saline with Tween-80) 111 % of control.

Take `C=C(Cl)CC(N)C(=O)O` (stereo not drawn): the T/C reads like this: under setting [2], 104 % of control; under setting [3], 104 % of control.
